Data taken from US8338414B2, “Immunosuppressive agent and anti-tumor agent comprising heterocyclic compound as active ingredient” (Zenyaku Kogyo KabushikiKaisha, priority 2005, dated 2012).
Like-named read-outs stand apart in the source and are kept apart here.

Tests used:
[1] = tested on: human peripheral blood mononuclear cells; test: Proliferation inhibition assay for human peripheral blood mononuclear cells; assay type: cell-based; conditions: Homo sapiens, 72 h; PBMC, anti-CD3 and anti-CD28 antibody, 3 days, Alamar Blue
Method in brief: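 PBMC from healthy donors (1×10^5 cells/mL) in RPMI 1640 with 10% FBS were stimulated with plate-bound anti-CD3 plus anti-CD28 (1 μg/mL). Serially diluted compounds were added and cells were cultured 3 days at 37 °C. Alamar Blue was then added for 1 day and fluorescence was read at ex 530/em 590 nm.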

[2] = tested on: Salmonella typhimurium TA98, TA100, TA1535, TA1537 and Escherichia coli WP2uvrA; test: Ames test; assay type: cell-based; conditions: preincubation method, with or without S-9, up to 5000 μg/flat plate
Method: Using 5 strains of Salmonella typhimurium TA98, TA100, TA1535, TA1537 and Escherichia coli WP2uvrA, the test substances (Compound 4, Compound 19, Compound 22 and Compound 24) were tested for their mutagenesis according to a preincubation method.

[3] = Toxicologic test for single oral administration; conditions: Sprague-Dawley (SD), rat, in vivo; SD male rats, single oral dose
THP-1 cells = test: Proliferation inhibitory activity on hematologic neoplasm cells, THP-1; assay type: cell-based; conditions: Homo sapiens, THP-1, 72 h; 3 days, Alamar Blue
Jurkat cells = test: Proliferation inhibitory activity on hematologic neoplasm cells, Jurkat; assay type: cell-based; conditions: Homo sapiens, Jurkat, 72 h; 3 days, Alamar Blue
HL 60 cells = test: Proliferation inhibitory activity on hematologic neoplasm cells, HL60; assay type: cell-based; conditions: Homo sapiens, HL-60, 72 h; 3 days, Alamar Blue
[4] = tested on: Rabbit synoviocytes HIG-82; test: Inhibition assay for proliferation of rabbit synoviocyte; assay type: cell-based; conditions: Oryctolagus cuniculus, 72 h; HIG-82, 3 days, Alamar Blue
U 937 cells = test: Proliferation inhibitory activity on hematologic neoplasm cells, U937; assay type: cell-based; conditions: Homo sapiens, U-937, 72 h; 3 days, Alamar Blue
[5] = tested on: allogeneic mixed lymphocyte reaction; test: Allogeneic mixed lymphocyte reaction; assay type: cell-based, mouse; conditions: Mus musculus, Lymphocyte; C57BL/6N spleen stimulator cells, BALB/c lymph node responder cells, 86 hours, BrdU
Method in brief: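 Stimulators were C57BL/6N female spleen cells and responders BALB/c female peripheral lymph node mononuclear cells (mice 8-10 weeks old). Cells suspended at 2×10^6 cells/mL in RPMI 1640 with 10% FBS and antibiotics.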

[6] = tested on: human peripheral blood mononuclear cells; test: Activation inhibition assay for human peripheral blood mononuclear cells (CD40L, CD69 expression); assay type: cell-based; conditions: PBMC, anti-CD3 + anti-CD28, 6 hours, flow cytometry
Method: In accordance with the method of Assay Example 2, PBMC (2×10^6 cells/mL) was isolated from human peripheral blood, suspended in RPMI 1640 medium (containing 10% fetal bovine serum, 10 mM HEPES, 1 mM pyruvic acid, and 4.5 g/L glucose), and seeded in wells of a 96 well plate at 0.225 mL per well. The test substances were added to respective wells, and then an anti-CD3 antibody (2 μg/mL) and an anti-CD28 antibody (1 μg/mL) were added. Then, after incubation under conditions of carbon dioxide 5% at a temperature 37° C. for 6 hours, the expressions of CD40L and CD69, activation markers, were analysed by flow cytometry. As a result, when the cells were stimulated by both an anti-CD3 antibody and an anti-CD28 antibody, CD40L was expressed on 14.4% of PBMC, which was also CD4 positive. However, the proportion of the cells which expressed CD40L decreased when the cells had been treated with test substances (Compound 4: 4.9%; Compound 20: 3.7%, Compound 24: 3.6%).

mouse spleen cells = test: Proliferation inhibition assay for mouse spleen cells; assay type: cell-based; conditions: 72 h, 3 days, Alamar Blue
Method in brief: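 C57BL/6N female mouse spleen cells (2×10^6 cells/mL) stimulated with Con A (3 μg/mL), LPS (100 μg/mL) or anti-mouse IgM (100 μg/mL) alongside serially diluted compounds, 3 days at 37° C, 5% CO2. Alamar Blue added for a further day; fluorescence read at ex 530/em 590 nm.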

fulminant hepatitis = test: Fulminant hepatitis model (galactosamine and LPS); assay type: in vivo, mouse; conditions: BALB/c mice, galactosamine 800 mg/kg and LPS 110 μg/kg i.p.
Method: BALB/c male mice (7 weeks old, purchased from Charles River Laboratories Japan Inc.) were used in the experiment. After having orally administered the test substances suspended in 5% HPC, galactosamine (800 mg/kg) and LPS (110 μg/kg) were intraperitoneally administered. Then, survival rates at 72 hours after administration were obtained.

Daudi cells = test: Proliferation inhibitory activity on hematologic neoplasm cells, Daudi; assay type: cell-based; conditions: Homo sapiens, Daudi, 72 h; 3 days, Alamar Blue

With `COc1cccc2c1nc(C(F)F)n2-c1nc(N2CCOCC2)cc(N2C[C@@H](C)O[C@@H](C)C2)n1` [Compound 24, 2-(2-Difluoromethyl-4-methoxybenzimidazol-1-yl)-4-(cis-2,6-dimethylmorpholino)-6-morpholinopyrimidine] the IC50 [1] was 471 nM, the “mutagenesis (colony number of reverse mutation)” value [2] was “negative” and the LD50 [3] was 600 to 900 mg/kg. It also gave an IC50 (THP-1 cells) of 859 nM, an IC50 (Jurkat cells) of 1450 nM and an IC50 (HL 60 cells) of 823 nM. For the same compound, the IC50 [4] was 441 nM, the IC50 (U 937 cells) was 2790 nM and the IC50 [5] was 286 nM. The “proportion of the cells which expressed CD40L” value ([6]; CD4 positive, 14.4% without test substance) was 3.6%, the “proportion of CD4-positive cells which expressed CD69” value ([6]; 28.8% without test substance) was 17.7% and the “proportion of CD4-negative cells which expressed CD69” value ([6]; 50.9% without test substance) was 22.4%. It also gave an IC50 (mouse spleen cells; LPS 100 μg/mL, read-out: Inhibition of LPS response) of 100 to 10000 nM, an IC50 (mouse spleen cells; anti-mouse IgM antibody 100 μg/mL, read-out: Inhibition of Anti-IgM antibody response) of 100 to 10000 nM and an IC50 (mouse spleen cells; concanavalin A 3 μg/mL, read-out: Inhibition of Con A response) of 100 to 10000 nM. The “Survival Rate after 72 Hours” value (fulminant hepatitis; 50 mg/kg oral) was 33%, the “Survival Rate after 72 Hours” value (fulminant hepatitis; 100 mg/kg oral) was 67% and the IC50 (Daudi cells) was 397 nM.
